Results: ChEMBL document CHEMBL3885861, “Open TG-GATES”

Organism: Rattus norvegicus
Test: Open TG-GATES - Regimen: Daily Repeat
Assay type: toxicity, organism-based, Sprague-Dawley
Parameters: regimen Daily Repeat, gender Male, age 6 weeks
Details: in vivo, po, 0 mg/kg, route gavage, dose level Control; for APTT / Bas / Eos / Fbg / Hb / Ht / Lym / MCH / MCHC / MCV / Mono / Neu / PT / Plat / RBC / Ret / WBC: tissue Blood; for KIDNEY_L / KIDNEY_R / KIDNEY_TOTAL: tissue Kidney; for LIVER: tissue Liver; for A/G / ALP / ALT / AST / BUN / CRE / Ca / Cl / DBIL / GLC / IP / K / LDH / Na / PL / RALB / TBIL / TC / TG / TP / gamma-GTP: tissue Plasma

CCO [ALCOHOL]
TERMINAL_BW (72 h, time 3 day): 232.9 g
APTT (72 h, time 3 day): 17.2 s
Bas (72 h, time 3 day): 0%
Eos (72 h, time 3 day): 1%
Fbg (72 h, time 3 day): 205.6 mg/dL
Hb (72 h, time 3 day): 14.1 g/dL
Ht (72 h, time 3 day): 41.9%
Lym (72 h, time 3 day): 77%
MCH (72 h, time 3 day): 21.5 pg
MCHC (72 h, time 3 day): 33.7%
MCV (72 h, time 3 day): 63.8 fL
Mono (72 h, time 3 day): 6%
Neu (72 h, time 3 day): 16%
PT (72 h, time 3 day): 11 s
Plat (72 h, time 3 day): 112.5 x10_4/uL
RBC (72 h, time 3 day): 656.4 x10_4/ul
Ret (72 h, time 3 day): 6.7%
WBC (72 h, time 3 day): 82.3 x10_2/uL
KIDNEY_L (72 h, time 3 day): 1 g
KIDNEY_R (72 h, time 3 day): 1 g
KIDNEY_TOTAL (72 h, time 3 day): 2 g
LIVER (72 h, time 3 day): 11.2 g
A/G (72 h, time 3 day): 2.2
ALP (72 h, time 3 day): 935.2 IU/L
ALT (72 h, time 3 day): 39.6 IU/L
AST (72 h, time 3 day): 61.8 IU/L
BUN (72 h, time 3 day): 19.6 mg/dL
CRE (72 h, time 3 day): 0.6 mg/dL
Ca (72 h, time 3 day): 10.9 mg/dL
Cl (72 h, time 3 day): 104.2 meq/L
DBIL (72 h, time 3 day): 0.04 mg/dL
GLC (72 h, time 3 day): 210.6 mg/dL
IP (72 h, time 3 day): 8.7 mg/dL
K (72 h, time 3 day): 4.6 meq/L
LDH (72 h, time 3 day): 75.8 IU/L
Na (72 h, time 3 day): 141 meq/L
PL (72 h, time 3 day): 160.6 mg/dL
RALB (72 h, time 3 day): 3.9 g/dL
TBIL (72 h, time 3 day): 0.3 mg/dL
TC (72 h, time 3 day): 83.8 mg/dL
TG (72 h, time 3 day): 101 mg/dL
TP (72 h, time 3 day): 5.7 g/dL
gamma-GTP (72 h, time 3 day): 1.2 IU/L
TERMINAL_BW ([…], time 7 day): 263.1 g
TERMINAL_BW ([…], time 14 day): 302.6 g
TERMINAL_BW ([…], time 28 day): 359.3 g
APTT ([…], time 7 day): 17 s
Bas ([…], time 7 day): 0%
Eos ([…], time 7 day): 1.2%
Fbg ([…], time 7 day): 212.6 mg/dL
Hb ([…], time 7 day): 14.2 g/dL
Ht ([…], time 7 day): 42.2%
Lym ([…], time 7 day): 84.2%
MCH ([…], time 7 day): 20.7 pg
MCHC ([…], time 7 day): 33.7%
MCV ([…], time 7 day): 61.5 fL
Mono ([…], time 7 day): 4%
Neu ([…], time 7 day): 10.6%
PT ([…], time 7 day): 11.1 s
Plat ([…], time 7 day): 127.1 x10_4/uL
RBC ([…], time 7 day): 687.8 x10_4/ul
Ret ([…], time 7 day): 5.2%
WBC ([…], time 7 day): 114.9 x10_2/uL
APTT ([…], time 14 day): 19.1 s
Bas ([…], time 14 day): 0%
Eos ([…], time 14 day): 1%
Fbg ([…], time 14 day): 211.2 mg/dL
Hb ([…], time 14 day): 15.2 g/dL
Ht ([…], time 14 day): 44.7%
Lym ([…], time 14 day): 81.4%
MCH ([…], time 14 day): 20.3 pg
MCHC ([…], time 14 day): 33.9%
MCV ([…], time 14 day): 59.9 fL
Mono ([…], time 14 day): 4.2%
Neu ([…], time 14 day): 13.4%
PT ([…], time 14 day): 11.4 s
Plat ([…], time 14 day): 110 x10_4/uL
RBC ([…], time 14 day): 746.4 x10_4/ul
Ret ([…], time 14 day): 4.3%
WBC ([…], time 14 day): 102.7 x10_2/uL
APTT ([…], time 28 day): 17 s
Bas ([…], time 28 day): 0%
Eos ([…], time 28 day): 1.6%
Fbg ([…], time 28 day): 215.6 mg/dL
Hb ([…], time 28 day): 15.4 g/dL
Ht ([…], time 28 day): 45.5%
Lym ([…], time 28 day): 82%
MCH ([…], time 28 day): 19.1 pg
MCHC ([…], time 28 day): 33.9%
MCV ([…], time 28 day): 56.4 fL
Mono ([…], time 28 day): 5.4%
Neu ([…], time 28 day): 11%
PT ([…], time 28 day): 11.2 s
Plat ([…], time 28 day): 114.3 x10_4/uL
RBC ([…], time 28 day): 807 x10_4/ul
Ret ([…], time 28 day): 8%
WBC ([…], time 28 day): 105.1 x10_2/uL
KIDNEY_L ([…], time 7 day): 1.1 g
KIDNEY_R ([…], time 7 day): 1.2 g
KIDNEY_TOTAL ([…], time 7 day): 2.3 g
KIDNEY_L ([…], time 14 day): 1.2 g
KIDNEY_R ([…], time 14 day): 1.2 g
KIDNEY_TOTAL ([…], time 14 day): 2.4 g
KIDNEY_L ([…], time 28 day): 1.3 g
KIDNEY_R ([…], time 28 day): 1.3 g
KIDNEY_TOTAL ([…], time 28 day): 2.6 g
LIVER ([…], time 7 day): 11.9 g
LIVER ([…], time 14 day): 13.2 g
LIVER ([…], time 28 day): 13.9 g
A/G ([…], time 7 day): 2.2
ALP ([…], time 7 day): 783 IU/L
ALT ([…], time 7 day): 33.6 IU/L
AST ([…], time 7 day): 62 IU/L
BUN ([…], time 7 day): 20.4 mg/dL
CRE ([…], time 7 day): 0.5 mg/dL
Ca ([…], time 7 day): 10.4 mg/dL
Cl ([…], time 7 day): 105.6 meq/L
DBIL ([…], time 7 day): 0.006 mg/dL
GLC ([…], time 7 day): 197.8 mg/dL
IP ([…], time 7 day): 7.5 mg/dL
K ([…], time 7 day): 4.7 meq/L
LDH ([…], time 7 day): 81.2 IU/L
Na ([…], time 7 day): 141.4 meq/L
PL ([…], time 7 day): 143.6 mg/dL
RALB ([…], time 7 day): 4 g/dL
TBIL ([…], time 7 day): 0.4 mg/dL
TC ([…], time 7 day): 71.4 mg/dL
TG ([…], time 7 day): 108 mg/dL
TP ([…], time 7 day): 5.7 g/dL
gamma-GTP ([…], time 7 day): 0.8 IU/L
A/G ([…], time 14 day): 1.9
ALP ([…], time 14 day): 678.2 IU/L
ALT ([…], time 14 day): 30 IU/L
AST ([…], time 14 day): 61.8 IU/L
BUN ([…], time 14 day): 19 mg/dL
CRE ([…], time 14 day): 0.5 mg/dL
Ca ([…], time 14 day): 10.6 mg/dL
Cl ([…], time 14 day): 105.6 meq/L
DBIL ([…], time 14 day): 0.028 mg/dL
GLC ([…], time 14 day): 204.6 mg/dL
IP ([…], time 14 day): 7.3 mg/dL
K ([…], time 14 day): 4.4 meq/L
LDH ([…], time 14 day): 80.2 IU/L
Na ([…], time 14 day): 142.6 meq/L
PL ([…], time 14 day): 138.6 mg/dL
RALB ([…], time 14 day): 3.8 g/dL
TBIL ([…], time 14 day): 0.4 mg/dL
TC ([…], time 14 day): 64.4 mg/dL
TG ([…], time 14 day): 120.6 mg/dL
TP ([…], time 14 day): 5.9 g/dL
gamma-GTP ([…], time 14 day): 0.6 IU/L
A/G ([…], time 28 day): 1.5
ALP ([…], time 28 day): 606.4 IU/L
ALT ([…], time 28 day): 32 IU/L
AST ([…], time 28 day): 61.2 IU/L
BUN ([…], time 28 day): 20.4 mg/dL
CRE ([…], time 28 day): 0.6 mg/dL
Ca ([…], time 28 day): 10.5 mg/dL
Cl ([…], time 28 day): 107 meq/L
DBIL ([…], time 28 day): 0 mg/dL
GLC ([…], time 28 day): 219.2 mg/dL
IP ([…], time 28 day): 6.1 mg/dL
K ([…], time 28 day): 4.3 meq/L
LDH ([…], time 28 day): 81.2 IU/L
Na ([…], time 28 day): 140.8 meq/L
PL ([…], time 28 day): 148 mg/dL
RALB ([…], time 28 day): 3.7 g/dL
TBIL ([…], time 28 day): 0.2 mg/dL
TC ([…], time 28 day): 76.2 mg/dL
TG ([…], time 28 day): 148.8 mg/dL
TP ([…], time 28 day): 6.1 g/dL
gamma-GTP ([…], time 28 day): 1.6 IU/L
